# Results from US11332483B2, “Naphthoquinone containing gold carbene complexes and methods of uses thereof” (BOARD OF REGENTS, THE UNIVERSITY OF TEXAS SYSTEM, priority 2017, dated 2022).
# Where two headings read alike, the source gives them in different places.
# Experiments:
# A549 lung cancer cells = test: Cell proliferation (MTT) assay in A549 lung cancer cells; type: cell-based, human
# Protocol: (§1) Cells were harvested and seeded into 96-well culture plates (Costar 07-200-90) in 100 μL of culture media. They were allowed to incubate overnight at 37° C. in the presence of 5% CO2. A549 was seeded at a density of 1000 cells/well, A2780 at 2500 cells/well, A2780CP at 3000 cells/well, and PC-3 at 2000 cells/well. The next day, appropriate serial dilutions of drug stocks in culture media were made. To each well of a 96 well plate was added 100 μL of the appropriate solution. After a total of three days, a […] aliquot of 3 mg/mL tetrazolium dye, 344,5-dimethylthiazol-2-yl)-2,5-diphenyltetrazolium bromide (Alfa Aesar L11939) was added to each well, followed by a 4 hr incubation period at 37° C. The medium was then removed, the resulting formazan was dissolved in […] DMSO and the respective absorbances were measured at 560-650 nm using a microplate reader (Molecular Devices, Sunnyvale, Calif.). Absorbance values were corrected for background and then normalized to wells containing untreated cells to allow for plate-to-plate comparisons. The data are shown as mean inhibition of proliferation or growth as a percentage of control cells and are from 2-3 replicate experiments. Resulting dose response curves were subjected to linear regression analysis (Origin by OriginLab, Inc.) for determination of IC50 values.
# A549 cells = settings: A549, 24 h
# Protocol: Control cells were treated with vehicle only. At 24 h, the media was collected and the cells were washed with PBS. The PBS washing was collected and the attached cells were then subjected to 0.5× trypsin (diluted with PBS) for 2 min. All media and washings were collected, pelleted by centrifugation (3 min @ 300 g) and washed twice with cold PBS. […] After this, 100 μL of cell suspension was added to 1.5 mL centrifuge tubes, followed by 5 μL each of Annexin V-FITC and propidium iodide (PI, 50 μg/mL) solution. Control samples of unstained cells, cells stained with only Annexin V-FITC, and cells stained with only PI were also prepared. Samples were allowed to incubate in the dark for 15 min at ambient temperature. After incubation, each sample was diluted with 200 μL of Annexin V binding buffer, and the resulting 300 μL sample was added to one well of a 96-well plate. Samples were then subjected to FACS analysis using a Millipore Guava easyCyte 8 and analyzed using Guava inCyte software.
# [1] = test system: A2780 ovarian (wt-p53, platinum sensitive); test: Cell proliferation (MTT) assay in A2780 ovarian cells; type: cell-based; settings: Table 3; error is standard error of the mean
# Protocol: (§2) Further anti-proliferation studies were carried out with complex 1 and its naphthoquinone component 4[H][Cl] using the following cell lines: A2780 ovarian (a wt-p53 cell line sensitive to platinum treatment), 2780CP ovarian (isogenic to A2780 but expressing multi-drug resistance (MDR)), and PC-3 prostate (p53 null) (Table 3).
# as §1, with “The data are shown as mean inhibition of proliferation or growth as a percentage of control cells and are from 2-3 replicate experiments. Resulting dose response curves were subjected to linear regression analysis (Origin by OriginLab, Inc.) for determination of IC50 values.” left out
# [2] = test system: A549 lung cancer cell xenografts in zebrafish; settings: 0.5 μM, bright field images
# Protocol: First, zebrafish embryos were divided into 7 groups at an average of 65 embryos per group. […] Briefly, live human lung cancer cells (A549) were labeled with CM-DiI (red) and only live cells were transplanted via injection into the perivitelline space of 30 zebrafish embryos 24 hours post fertilization (hpf) (Sittaramane et al., 2015; Veinotte et al., 2014; Xie et al., 2015). Tumor inoculated zebrafish embryos were allowed to grow for one day till 48 hpf. This allows for establishment of the cancer cells in the host zebrafish embryos.
# [3] = test system: fetal bovine serum proteins
# Protocol: To assess potential drug protein interactions, samples of fetal bovine serum (FBS) were treated with 25 μM 1, 3, and auranofin prior to incubating at 37° C. Aliquots were taken and the free Au (non-protein bound, methanolic extracts) content was analyzed by ICP-MS (FIG. 3B).
# A 25 μM solution of each compound in 3 mL warm FBS was made. The solutions were kept at 37° C. Over time, 100 μL aliquots of each solution were taken and precipitated into 400 μL cold methanol. Precipitated aliquots were stored at −80° C. The methanolic suspensions were then centrifuged at 11,000 rcf for 5 min in an Edvotek microcentrifuge. The supernatants were pipetted into new microcentrifuge tubes. Samples were prepared for ICP-MS by adding 200 μL supernatant from each sample to 2 mL 3% Trace Metal Grade HCl. Time points were at addition of compound (T0), 4, 6.25, 9.75, 12, 24, 48, 72, and 100 h.
# A549 cancer cells = settings: A549, 1.25 μM
# Protocol: All cells were selectively stained for visualization of ROS accentuation (green, CM-H2DCFDA), mitochondria (red, Mitotracker Red), and nuclei (blue, Hoechst).
# Cells were then incubated with 1.25 μM complex at 37° C. 4 h. Post incubation, the media was removed and cells were washed (2×) with PBS. Cells were then incubated with 1 μM CM-H2DCFDA (Lifetech C6827) in PBS at 37° C. for 15 min. The dye-PBS solution was removed and cells were washed with PBS (2×). To the cells was added a PBS solution containing 1 ug/mL Hoechst 33342 (Lifetech H1399) and 50 nM Mitotracker Red FM (Lifetech M22425) for 30 min at 37° C. After incubation, the dye-PBS solution was removed and cells were washed with PBS (2×). Cells were then imaged fluorescently on a Leica SP5 X White light laser confocal microscope. Images were taken with a 63×, NA 1.4 objective.
# [4] = test system: 2780CP ovarian (multi-drug resistant); test: Cell proliferation (MTT) assay in 2780CP ovarian cells; type: cell-based; settings: Table 3; error is standard error of the mean
# Protocol: as §2
# as §1, with “The data are shown as mean inhibition of proliferation or growth as a percentage of control cells and are from 2-3 replicate experiments. Resulting dose response curves were subjected to linear regression analysis (Origin by OriginLab, Inc.) for determination of IC50 values.” left out
# PC-3 prostate (p53 null) = test: Cell proliferation (MTT) assay in PC-3 prostate cells; type: cell-based; settings: Table 3; error is standard error of the mean
# Protocol: as §2
# as §1, with “The data are shown as mean inhibition of proliferation or growth as a percentage of control cells and are from 2-3 replicate experiments. Resulting dose response curves were subjected to linear regression analysis (Origin by OriginLab, Inc.) for determination of IC50 values.” left out
# [5] = test system: thioredoxin reductase (TrxR) in A549 cells; test: Lipoate reduction assay of thioredoxin reductase activity in live cells; type: cell-based, human
# Protocol: To assess whether any or all of the present gold complexes could serve as TrxR inhibitors, standard tests involving the reduction of the oxidized form of the cell-permeable cofactor lipoate to its corresponding reduced form, dihydrolipoate, were carried out. […] [Cl] and 5 (cocktail), auranofin, and doxorubicin for 6 h. Post treatment, the live cells were monitored colorimetrically over 180 min for their ability to reduce lipoate (FIG. 5A).
# Cells were harvested and seeded at a density of 10,000 cells/well A549 in 96-well culture plates. They were then incubated overnight at 37° C. and 5% CO2. The next day, appropriate serial dilutions of drug stock in culture media were performed, and 100 μL of the appropriate solution were added to each well. Cells were returned to the incubator for 6 h. Afterwards, the liquid was then removed from each well by vacuum aspiration and replaced by 100 μL of 5 mM lipoate (Tokyo Chemical Industry Co., Ltd. L0207) and 1 mM DTNB (Acros Organics 117540050) in HBSS (Life tech 14025-092). The absorbance of each well at […] was recorded immediately and once every 20 min for three h on a microplate reader (Molecular Devices, Sunnyvale, Calif.). Plates were covered with aluminum foil between readings.
smiles,measurement,setting,value
"Cc1cc(C)c(-n2c3c([n+](-c4c(C)cc(C)cc4C)[c]2[Au-][c]2n(-c4c(C)cc(C)cc4C)c4c([n+]2-c2c(C)cc(C)cc2C)C(=O)c2ccccc2C4=O)C(=O)c2ccccc2C3=O)c(C)c1.[Cl][Ag-][Cl] [Compound 1, [Bis(1,3-dimesityl-4,5-naphthoquino-imidazol-2-ylidene)-gold(I)] [Silver(I)dichloride]]",Fold Difference relative to 1,A549 lung cancer cells; A549 IC50 relative to complex 1,1
same,IC50,"A549 lung cancer cells; A549 lung cancer cells, MTT, 72 h, read-out: IC50",73 ± 16 nM
same,IC50,"A549 lung cancer cells; Table 3, error is standard error of the mean, read-out: IC50 A549 Lung",73 ± 16 nM
same,induction of apoptosis (annexin-V/PI),A549 cells,induces controlled cell death via an apoptotic mechanism
same,IC50,[1],26 ± 7 nM
same,non-specific cell death in the developing zebrafish larvae,[2],no non-specific cell death
same,free Au (non-protein bound) content as a function of time,[3],minimal changes in the free Au levels
same,subcellular loci of ROS accentuation,A549 cancer cells,ROS accentuation is arising from mitochondria
same,IC50,[4],54 ± 6 nM
same,IC50,PC-3 prostate (p53 null),96 ± 17 nM
same,"TrxR activity by lipoate reduction, time and dose dependence","[5]; A549, in words",time (FIG. 12A) and dose (FIG. 12B) dependent inhibition of enzyme activity
same,inhibition of TrxR (lipoate reduction),"[5]; A549, low concentrations (0.1-0.6 μM), 6 h",inhibition of TrxR was apparent
